Data as given in the kinase profiling compilation of Christmann-Franck et al. (2016).

Key:
Experiment in all cases: KINOMEscan competition binding
Details in all cases: compound 10.0 µM; call rule not given here
STK3 (human) = STK3 (human) (UniProt Q13188)
HCK (human) = HCK (human) (UniProt P08631)
MAP4K5 (human) = MAP4K5 (human) (UniProt Q9Y4K4)
FRK (human) = FRK (human) (UniProt P42685)
KDR (human) = KDR (human) (UniProt P35968)
BTK (human) = BTK (human) (UniProt Q06187)
TEK (human) = TEK (human) (UniProt Q02763)
PKN2 (human) = PKN2 (human) (UniProt Q16513)
TNIK (human) = TNIK (human) (UniProt Q9UKE5)
STK4 (human) = STK4 (human) (UniProt Q13043)
CSF1R (human) = CSF1R (human) (UniProt P07333)
ULK3 (human) = ULK3 (human) (UniProt Q6PHR2)
MARK2 (human) = MARK2 (human) (UniProt Q7KZI7)
STK38L (human) = STK38L (human) (UniProt Q9Y2H1)
PRKAA1 (human) = PRKAA1 (human) (UniProt Q13131)
RET (human) = RET (human) (UniProt P07949)
MAP3K11 (human) = MAP3K11 (human) (UniProt Q16584)
KIT (human) = KIT (human) (UniProt P10721)
TNK2 (human) = TNK2 (human) (UniProt Q07912)
MAPK12 (human) = MAPK12 (human) (UniProt P53778)
GAK (human) = GAK (human) (UniProt O14976)
SYK (human) = SYK (human) (UniProt P43405)
CSNK2A2 (human) = CSNK2A2 (human) (UniProt P19784)
AAK1 (human) = AAK1 (human) (UniProt Q2M2I8)
ABL2 (human) = ABL2 (human) (UniProt P42684)
TNNI3K (human) = TNNI3K (human) (UniProt Q59H18)
FYN (human) = FYN (human) (UniProt P06241)
[1] = test system: EIF2AK4 KD2 (human), Q9P2K8 [S808G]
FLT4 (human) = FLT4 (human) (UniProt P35916)
MERTK (human) = MERTK (human) (UniProt Q12866)
TLK1 (human) = TLK1 (human) (UniProt Q9UKI8)
[2] = target: JAK2 JH1 catalytic (human) (UniProt O60674)
MKNK2 (human) = MKNK2 (human) (UniProt Q9HBH9)
PDGFRA (human) = PDGFRA (human) (UniProt P16234)
MAPK10 (human) = MAPK10 (human) (UniProt P53779)
MET (human) = MET (human) (UniProt P08581)
CSNK1D (human) = CSNK1D (human) (UniProt P48730)
EPHA8 (human) = EPHA8 (human) (UniProt P29322)
MYLK2 (human) = MYLK2 (human) (UniProt Q9H1R3)
CDK2 (human) = CDK2 (human) (UniProt P24941)
CSNK1A1L (human) = CSNK1A1L (human) (UniProt Q8N752)
Chain of CSNK1A1L (human) (Q8N752 whole entry, looked up): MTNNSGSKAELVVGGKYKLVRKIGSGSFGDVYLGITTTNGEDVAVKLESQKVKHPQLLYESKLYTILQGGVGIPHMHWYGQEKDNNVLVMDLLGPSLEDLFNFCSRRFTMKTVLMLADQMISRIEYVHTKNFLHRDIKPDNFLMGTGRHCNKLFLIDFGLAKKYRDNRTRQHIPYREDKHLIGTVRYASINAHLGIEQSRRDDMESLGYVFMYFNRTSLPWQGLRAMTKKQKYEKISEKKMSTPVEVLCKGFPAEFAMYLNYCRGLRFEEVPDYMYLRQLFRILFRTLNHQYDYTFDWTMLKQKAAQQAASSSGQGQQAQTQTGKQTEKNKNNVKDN

Chain of MAP3K11 (human) (Q16584 whole entry, looked up): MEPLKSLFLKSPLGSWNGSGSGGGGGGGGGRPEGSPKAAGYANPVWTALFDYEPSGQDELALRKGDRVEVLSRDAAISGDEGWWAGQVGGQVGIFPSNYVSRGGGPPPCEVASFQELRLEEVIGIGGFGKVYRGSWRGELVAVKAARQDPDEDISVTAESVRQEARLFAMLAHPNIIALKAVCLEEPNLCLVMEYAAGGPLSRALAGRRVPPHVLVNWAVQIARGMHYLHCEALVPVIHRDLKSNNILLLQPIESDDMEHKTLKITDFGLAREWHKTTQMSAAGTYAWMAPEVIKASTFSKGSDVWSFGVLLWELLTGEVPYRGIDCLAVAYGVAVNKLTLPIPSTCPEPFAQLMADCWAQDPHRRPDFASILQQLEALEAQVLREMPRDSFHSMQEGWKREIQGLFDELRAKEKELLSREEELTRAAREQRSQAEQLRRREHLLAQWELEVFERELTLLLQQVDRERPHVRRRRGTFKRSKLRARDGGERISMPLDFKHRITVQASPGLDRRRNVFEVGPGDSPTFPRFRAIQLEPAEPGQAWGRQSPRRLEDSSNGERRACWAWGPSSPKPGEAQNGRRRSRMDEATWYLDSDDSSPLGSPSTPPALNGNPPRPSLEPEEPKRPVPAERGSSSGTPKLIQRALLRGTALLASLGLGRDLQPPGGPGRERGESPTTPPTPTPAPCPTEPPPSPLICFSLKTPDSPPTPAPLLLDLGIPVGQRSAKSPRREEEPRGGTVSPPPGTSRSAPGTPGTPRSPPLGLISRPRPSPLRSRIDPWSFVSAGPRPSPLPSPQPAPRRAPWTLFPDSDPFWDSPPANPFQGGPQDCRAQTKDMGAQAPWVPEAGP
Chain of GAK (human) (O14976 whole entry, looked up): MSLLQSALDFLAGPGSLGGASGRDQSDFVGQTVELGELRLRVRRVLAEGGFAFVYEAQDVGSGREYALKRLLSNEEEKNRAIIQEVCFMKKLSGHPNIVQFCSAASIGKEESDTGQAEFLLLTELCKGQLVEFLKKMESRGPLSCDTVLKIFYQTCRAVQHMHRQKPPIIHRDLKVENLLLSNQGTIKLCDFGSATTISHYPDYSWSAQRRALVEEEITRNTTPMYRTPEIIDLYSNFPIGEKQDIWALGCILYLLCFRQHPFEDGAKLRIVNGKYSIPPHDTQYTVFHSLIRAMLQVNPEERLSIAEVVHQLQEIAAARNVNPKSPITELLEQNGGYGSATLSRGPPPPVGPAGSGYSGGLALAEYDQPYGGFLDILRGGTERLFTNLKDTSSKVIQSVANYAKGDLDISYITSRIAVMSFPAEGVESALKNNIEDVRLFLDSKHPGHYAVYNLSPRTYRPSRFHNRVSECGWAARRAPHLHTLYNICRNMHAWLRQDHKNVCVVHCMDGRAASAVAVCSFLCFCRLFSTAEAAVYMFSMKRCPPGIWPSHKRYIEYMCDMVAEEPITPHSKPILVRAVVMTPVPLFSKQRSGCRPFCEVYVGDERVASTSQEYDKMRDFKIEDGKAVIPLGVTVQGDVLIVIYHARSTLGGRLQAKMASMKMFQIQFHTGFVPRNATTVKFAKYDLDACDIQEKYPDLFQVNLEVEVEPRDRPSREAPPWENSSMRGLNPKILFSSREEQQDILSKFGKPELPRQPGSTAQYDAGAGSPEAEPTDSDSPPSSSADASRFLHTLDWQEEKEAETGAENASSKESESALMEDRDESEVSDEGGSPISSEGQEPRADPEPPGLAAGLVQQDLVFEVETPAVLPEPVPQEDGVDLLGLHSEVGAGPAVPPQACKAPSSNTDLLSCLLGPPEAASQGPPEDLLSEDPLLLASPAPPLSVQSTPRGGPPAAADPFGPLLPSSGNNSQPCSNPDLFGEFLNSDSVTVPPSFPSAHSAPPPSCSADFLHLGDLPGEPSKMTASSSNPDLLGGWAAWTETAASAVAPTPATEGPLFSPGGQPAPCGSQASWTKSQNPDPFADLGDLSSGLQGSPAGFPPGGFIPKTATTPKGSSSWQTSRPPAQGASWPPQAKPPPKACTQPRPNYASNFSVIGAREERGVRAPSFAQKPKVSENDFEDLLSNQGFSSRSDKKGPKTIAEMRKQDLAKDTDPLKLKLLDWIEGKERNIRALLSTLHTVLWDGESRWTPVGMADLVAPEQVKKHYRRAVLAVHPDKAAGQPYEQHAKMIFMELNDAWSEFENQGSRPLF
Chain of MAPK10 (human) (P53779 whole entry, looked up): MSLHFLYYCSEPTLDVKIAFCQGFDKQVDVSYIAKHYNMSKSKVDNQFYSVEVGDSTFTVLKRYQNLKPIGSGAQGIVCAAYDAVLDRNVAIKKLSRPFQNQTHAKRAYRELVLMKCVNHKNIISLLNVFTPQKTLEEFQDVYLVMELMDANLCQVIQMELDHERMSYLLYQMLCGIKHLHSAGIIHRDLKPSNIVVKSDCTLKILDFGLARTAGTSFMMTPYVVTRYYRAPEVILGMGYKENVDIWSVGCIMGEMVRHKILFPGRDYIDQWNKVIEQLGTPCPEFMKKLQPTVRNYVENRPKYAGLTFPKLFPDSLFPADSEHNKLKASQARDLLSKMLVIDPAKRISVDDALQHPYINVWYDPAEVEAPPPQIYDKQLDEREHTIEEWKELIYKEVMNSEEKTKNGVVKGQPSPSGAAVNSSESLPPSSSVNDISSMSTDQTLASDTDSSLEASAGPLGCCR
Chain of FYN (human) (P06241 whole entry, looked up): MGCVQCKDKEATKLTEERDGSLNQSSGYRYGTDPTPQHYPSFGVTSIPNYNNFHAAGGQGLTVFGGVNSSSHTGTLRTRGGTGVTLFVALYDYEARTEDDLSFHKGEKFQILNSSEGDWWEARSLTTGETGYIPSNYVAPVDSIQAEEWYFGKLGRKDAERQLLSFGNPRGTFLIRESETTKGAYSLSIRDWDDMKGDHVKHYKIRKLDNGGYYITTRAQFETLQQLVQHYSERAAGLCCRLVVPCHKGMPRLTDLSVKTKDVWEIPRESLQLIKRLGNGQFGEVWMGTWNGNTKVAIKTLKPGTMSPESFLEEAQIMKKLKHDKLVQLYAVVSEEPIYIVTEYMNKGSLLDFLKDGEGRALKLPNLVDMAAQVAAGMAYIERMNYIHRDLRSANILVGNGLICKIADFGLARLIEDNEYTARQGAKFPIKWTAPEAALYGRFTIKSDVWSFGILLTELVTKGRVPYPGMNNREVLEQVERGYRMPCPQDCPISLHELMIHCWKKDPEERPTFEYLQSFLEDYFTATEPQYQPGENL
Chain of TNK2 (human) (Q07912 whole entry, looked up): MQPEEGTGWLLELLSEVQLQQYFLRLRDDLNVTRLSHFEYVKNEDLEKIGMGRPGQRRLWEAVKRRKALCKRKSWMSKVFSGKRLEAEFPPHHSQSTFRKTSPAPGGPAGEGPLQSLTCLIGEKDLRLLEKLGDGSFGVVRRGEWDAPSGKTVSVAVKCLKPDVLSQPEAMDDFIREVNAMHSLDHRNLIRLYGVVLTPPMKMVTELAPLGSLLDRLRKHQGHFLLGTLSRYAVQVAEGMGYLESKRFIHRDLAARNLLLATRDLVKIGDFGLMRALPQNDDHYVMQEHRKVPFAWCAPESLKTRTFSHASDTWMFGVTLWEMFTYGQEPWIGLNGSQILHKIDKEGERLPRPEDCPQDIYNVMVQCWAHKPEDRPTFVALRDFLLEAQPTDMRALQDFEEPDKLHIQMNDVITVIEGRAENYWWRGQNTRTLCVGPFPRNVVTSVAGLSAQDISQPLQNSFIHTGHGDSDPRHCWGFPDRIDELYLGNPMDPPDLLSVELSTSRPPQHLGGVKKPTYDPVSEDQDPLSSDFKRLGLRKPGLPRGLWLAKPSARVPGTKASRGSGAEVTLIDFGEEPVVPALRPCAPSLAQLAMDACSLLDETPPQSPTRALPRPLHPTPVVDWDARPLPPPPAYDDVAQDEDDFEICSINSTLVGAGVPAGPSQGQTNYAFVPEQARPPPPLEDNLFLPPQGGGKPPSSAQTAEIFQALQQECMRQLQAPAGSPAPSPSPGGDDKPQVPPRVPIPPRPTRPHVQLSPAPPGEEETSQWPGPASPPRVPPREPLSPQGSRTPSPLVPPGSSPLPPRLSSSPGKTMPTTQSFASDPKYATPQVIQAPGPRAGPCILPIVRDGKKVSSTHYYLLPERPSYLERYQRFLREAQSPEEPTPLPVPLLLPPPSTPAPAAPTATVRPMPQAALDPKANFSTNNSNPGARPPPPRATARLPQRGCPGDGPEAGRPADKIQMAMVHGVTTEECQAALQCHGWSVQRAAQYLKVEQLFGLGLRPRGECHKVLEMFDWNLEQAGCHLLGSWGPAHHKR
Chain of HCK (human) (P08631 whole entry, looked up): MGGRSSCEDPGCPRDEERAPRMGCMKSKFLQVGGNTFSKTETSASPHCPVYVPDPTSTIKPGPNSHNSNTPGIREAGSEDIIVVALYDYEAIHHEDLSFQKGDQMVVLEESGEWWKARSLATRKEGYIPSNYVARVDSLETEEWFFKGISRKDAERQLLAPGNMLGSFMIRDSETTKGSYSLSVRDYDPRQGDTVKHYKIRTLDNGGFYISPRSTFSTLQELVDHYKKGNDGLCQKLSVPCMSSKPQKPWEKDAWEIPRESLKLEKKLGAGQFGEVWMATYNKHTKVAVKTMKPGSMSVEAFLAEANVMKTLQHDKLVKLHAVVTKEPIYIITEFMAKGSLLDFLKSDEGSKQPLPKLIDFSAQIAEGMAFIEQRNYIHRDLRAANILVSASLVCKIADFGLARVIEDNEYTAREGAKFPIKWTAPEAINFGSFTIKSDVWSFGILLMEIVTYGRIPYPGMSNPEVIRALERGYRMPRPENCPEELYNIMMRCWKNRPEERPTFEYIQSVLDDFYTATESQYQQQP

CCS(=O)(=O)Nc1ccc2c(c1)[C@H](/C(=N/c1ccc(CN3CCCCC3)cc1)c1ccccc1)C(=O)N2
kinase still bound, per cent of control (STK3 (human)): 0% | kinase still bound, per cent of control (HCK (human)): 0% | kinase still bound, per cent of control (MAP4K5 (human)): 0% | kinase still bound, per cent of control (FRK (human)): 0.5% | kinase still bound, per cent of control (KDR (human)): 0% | kinase still bound, per cent of control (BTK (human)): 0% | kinase still bound, per cent of control (TEK (human)): 0.4% | kinase still bound, per cent of control (PKN2 (human)): 3% | kinase still bound, per cent of control (TNIK (human)): 0% | kinase still bound, per cent of control (STK4 (human)): 0% | kinase still bound, per cent of control (CSF1R (human)): 0% | kinase still bound, per cent of control (ULK3 (human)): 0% | kinase still bound, per cent of control (MARK2 (human)): 0.3% | kinase still bound, per cent of control (STK38L (human)): 0% | kinase still bound, per cent of control (PRKAA1 (human)): 0% | kinase still bound, per cent of control (RET (human)): 0% | kinase still bound, per cent of control (MAP3K11 (human)): 12.3% | kinase still bound, per cent of control (KIT (human)): 0.1% | kinase still bound, per cent of control (TNK2 (human)): 0% | kinase still bound, per cent of control (MAPK12 (human)): no effect (inactive) | kinase still bound, per cent of control (GAK (human)): 2.7% | kinase still bound, per cent of control (SYK (human)): 1.3% | kinase still bound, per cent of control (CSNK2A2 (human)): 0% | kinase still bound, per cent of control (AAK1 (human)): 0.1% | kinase still bound, per cent of control (ABL2 (human)): 4.8% | kinase still bound, per cent of control (TNNI3K (human)): 7.6% | kinase still bound, per cent of control (FYN (human)): 0% | kinase still bound, per cent of control [1]: 0% | kinase still bound, per cent of control (FLT4 (human)): 0.1% | kinase still bound, per cent of control (MERTK (human)): 0% | kinase still bound, per cent of control (TLK1 (human)): 0.75% | kinase still bound, per cent of control [2]: 0.1% | kinase still bound, per cent of control (MKNK2 (human)): 2.1% | kinase still bound, per cent of control (PDGFRA (human)): 0.8% | kinase still bound, per cent of control (MAPK10 (human)): 0% | kinase still bound, per cent of control (MET (human)): 0.3% | kinase still bound, per cent of control (CSNK1D (human)): no effect (inactive) | kinase still bound, per cent of control (EPHA8 (human)): 0.4% | kinase still bound, per cent of control (MYLK2 (human)): 20.7% | kinase still bound, per cent of control (CDK2 (human)): 28.3% | kinase still bound, per cent of control (CSNK1A1L (human)): no effect (inactive)
